{"source": "patent US20140235630A1", "about": "“COMPOSITIONS AND METHODS FOR THE TREATMENT OF PROLIFERATIVE DISEASES” (Beth Israel Deaconess Medical Center, Inc., priority 2011, published 2014)", "key": {"[1]": {"test_system": "spontaneous tumors of MMTV-CreBRCA1^f/fp53+/− mice", "assay": "Tumor growth (relative tumor volume, doubling time) in spontaneous BRCA1-related breast cancer model", "assay_type": "in vivo, mouse", "details": "for tumor doubling time: Compound A 50 or 30 mg/kg/day gavage (pooled), Compound B 50 mg/kg/day i.p., vehicle 5 days; for prolongation of tumor doubling time versus vehicle control: versus 5 days with vehicle", "procedure": "FIGS. 6A-6D are graphs showing the synergistic effect of a PI3K inhibitor (Compound A) and PARP inhibitor (Compound B) in treating breast cancer. Trendlines (bold lines) were calculated using all data points to determine best fit and show the relative tumor growth in the vehicle control cohort (as in FIG. 6A) and in the Compound A cohort (as in FIG. 6B). The functions of the best-fit curves were used to determine tumor doubling times for all three treatment modalities and controls. Tumor-bearing MMTV-CreBRCA1^f/fp53+/− were treated with either vehicle control (6A); Compound A (6B, 50 mg/kg/day (n=11) or 30 mg/kg/day (n=10)); Compound B (6C, 50 mg/kg/day (n=8)); or the combination of Compound A and Compound B (6D, Compound A 50 mg/kg/day+Compound B 50 mg/kg/day (n=8) or Compound A 30 mg/kg/day+Compound B 50 mg/kg/day (n=7)) and tumor volumes were measured every 2-3 days using calipers.\nFIG. 7 is a graph showing the relative tumor volume (RTV) over time of tumor-bearing MMTV-CreBRCA1^f/fp53+/− mice treated with a control vehicle (n=3), PI3Kα-specific inhibitor Compound C alone (n=7), or a combination of pan-PARP inhibitor Compound B and PI3Kα-specific inhibitor Compound C (n=6). The data of the control and Compound C alone treatment groups are represented by trendlines calculated using all data points to determine best fit. The data of the combination treatment group are individually represented.\nAll animal experiments were conducted in accordance with IACUC-approved protocols at Beth Israel Deaconess Medical Center, Boston, and at the University of Vall d'Hebron, Barcelona, Spain. Female MMTV-CreBRCA1^f/fp53+/− mice were obtained by breeding BRCA1 conditional knockout mice from the NIH repository (01XC8, strain C57BL/6) (Xu et al. Nat. Genet., 22: 37-43, 1999); with MMTV-Cre (Jackson Laboratory B6129-TgN(MMTV-Cre)4Mam) (Wagner et al. Nucleic Acids Res., 25: 4323-4330, 1997) and p53 knockout (Taconic Farms, P53N12-M, C57BL/6) (Donehower et al. Nature, 356: 215-221, 1992). At the time of the study, mice had been inbred for 4 years (>7 generations). The floxed or wild type status of Brca1, the presence of the MMTV-Cre transgene and the p53 heterozygosity were determined by PCR. Mice were examined for the occurrence of tumors twice weekly. When tumormetrics were performed, the length and width of the tumor was determined using calipers, and the tumor volume was determined (width^2×length/2). Tumor volume was used as a measure of growth and was recorded as ratio to tumor volume at diagnosis. Tumor doubling times were calculated using the functions of the best fit curves for all data points in each treatment modality. […]"}, "[2]": {"test_system": "patient-derived tumor with BRCA1 germline mutation 185delAG", "assay": "Patient-derived BRCA1 185delAG breast tumor xenograft growth", "assay_type": "in vivo, human", "details": "tumor resistant to standard chemotherapy and Compound B; Compound A 30 mg/kg/day, Compound B 50 mg/kg/day", "from_the_text": "FIGS. 6G and 6H are graphs showing the relative tumor volume (RTV) over time of tumors from breast cancer tissues from two patients, one with a 185delAG germline mutation (6G) and the other one with a 2080delA germline mutation (6H), propagated as subcutaneous implants in nude mice. Tumors were allowed to grow to a size of 5 mm when mice were randomized to treatments with either vehicle control (squares), Compound A (upside-down triangles), Compound B (triangles), or their combination (diamonds) (n=6 for each cohort, same dosing as in 6F).\nAll animal experiments were conducted in accordance with IACUC-approved protocols at Beth Israel Deaconess Medical Center, Boston, and at the University of Vall d'Hebron, Barcelona, Spain. […] The floxed or wild type status of Brca1, the presence of the MMTV-Cre transgene and the p53 heterozygosity were determined by PCR. […] When tumormetrics were performed, the length and width of the tumor was determined using calipers, and the tumor volume was determined (width^2×length/2). Tumor volume was used as a measure of growth and was recorded as ratio to tumor volume at diagnosis. Tumor doubling times were calculated using the functions of the best fit curves for all data points in each treatment modality. […]"}}}
{"smiles": "Nc1cc(C(F)(F)F)c(-c2cc(N3CCOCC3)nc(N3CCOCC3)n2)cn1", "note": "[Compound A, 5-(2,6-dimorpholinopyrimidin-4-yl)-4-(trifluoromethyl)pyridin-2-amine]", "values": [{"measurement": "tumor doubling time", "setting": "[1]", "value": 26, "unit": "days"}, {"measurement": "prolongation of tumor doubling time versus vehicle control", "setting": "[1]", "value": 5, "unit": "fold"}, {"measurement": "growth of patient-derived tumor (relative tumor volume)", "setting": "[2]", "value": "modestly attenuated"}]}
{"smiles": "O=C(c1cc(Cc2n[nH]c(=O)c3ccccc23)ccc1F)N1CCN(C(=O)C2CC2)CC1", "note": "[Compound B, 4-[[3-[4-(cyclopropanecarbonyl)piperazine-1-carbonyl]-4-fluorophenyl]methyl]-2H-phthalazin-1-one, reference compound]", "values": [{"measurement": "tumor doubling time", "setting": "[1]", "value": 16, "unit": "days"}, {"measurement": "prolongation of tumor doubling time versus vehicle control", "setting": "[1]", "value": "three-fold"}, {"measurement": "growth of patient-derived tumor (relative tumor volume)", "setting": "[2]", "value": "modestly attenuated"}]}
